Experiments:
individuals [1] = assay: Long-term nasal use: rebound effect (rebound congestion); format: in vivo, human; settings: oxymetazoline or salts at less than 0.050%, preferably 0.025%
Text: In an embodiment of the nasal spray composition, the nasal spray composition may include effective amounts of a decongestant or vasoconstrictor, such as oxymetazoline, or pharmaceutical acceptable salts thereof, such as oxymetazoline hydrochloride. In an illustrative embodiment, the effective amount of oxymetazoline or pharmaceutical acceptable salts thereof, is less than 0.050%, between less than 0.050% and 0.010%, and more preferably, 0.025% or about 0.025%. Oxymetazoline, a member of the imidazole group, binds and activates alpha-2 adrenergic receptors. Upon nasal administration, imidazole group compounds constrict the arterioles in the nose, resulting in decreasing congestion. Concentrations of oxymetazoline (0.050%) utilized in the over-the-counter sprays have been proven to return symptoms to a degree stronger than present initially upon discontinuation of the drug. This is called the rebound effect, or rebound congestion (rhinitis medicamentosa, chemical rhinitis, or nasal spray addiction). The rebound effect may occur in as early as 3 days of use, but typically occurs in 3-5 days and sometimes 5-7 days of use. […] As such, the nasal spray according to the present invention can be used for a time period greater than 5-7 days without the risk of suffering from any rebound effect. […]

individuals [2] = settings: oxymetazoline 0.050% in over-the-counter sprays, days of use; cited from earlier work

Cc1cc(C(C)(C)C)c(O)c(C)c1CC1=NCCN1 [oxymetazoline]
effect on snoring or sleep apnea and rebound effect (individuals [1]): effective at reducing or minimizing snoring or sleep apnea while preventing the rebound effect
rebound effect: earliest onset (may occur in as early as) (individuals [2]): 3 days
rebound effect: onset sometimes (individuals [2]): 5 to 7 days
rebound effect: typical onset (individuals [2]): 3 to 5 days
